From patent US20190275040A1, “COMPOUNDS AND METHODS FOR TREATING OR PREVENTING ALZHEIMER'S DISEASE” (YALE UNIVERSITY, priority 2016, published 2019)

Experiments:
Pyk2 [1] = target: T1, Pyk2 (Homo sapiens, UniProt Q14289); assay: Pyk2 Ki of kinase inhibitors (CHEMBL & IUPHR-BPS database screen, Table 2); type: biochemical; conditions: Pyk2 versus Fyn
Pyk2 [2] = target: T1, Pyk2; conditions: read-out: Pyk2 Ki; cited from earlier work
APP/PS1 mice = conditions: cited from earlier work
[3] = tested on: cultured hippocampal neurons; assay: Graf1c knockdown-induced dendritic spine loss in cultured hippocampal neurons; type: cell-based, mouse; conditions: 10 μM
Method: FIGS. 17A-17B illustrate the finding that Graf1 is a functional GTPase activating protein (GAP) in mature neurons and regulates dendritic spine formation. FIG. 17A: Representative fluorescence images of cultured hippocampal neurons. […] Scale bar, 10 μm. FIG. 17B: Quantification of dendritic spine density in the transfected neurons.
Next, it was evaluated whether RhoA activity is necessary for Pyk2-induced decrease in dendritic spine density. As described elsewhere herein, overexpression of GFP-Pyk2 induces loss of half of hippocampal neuron dendritic spines (FIGS. 10E-10F). […] Therefore, Pyk2 interacts with Graf1c within dendritic spines to allow increased RhoA-GTP levels and subsequent reduced synapse density.

[4] = tested on: primary hippocampal neurons; assay: Dendritic spine motility in primary hippocampal neurons; type: cell-based, mouse
Description: FIG. 11A: Representative images of dendritic spine motility by standard deviation projection of time-lapse image. […] The standard deviation value for each pixel is shown by thermal color scale. […] FIG. 11B: Quantification of spine motility, expressed as % of changed area of spines with subtraction of changed area of dendritic shaft as background (changed area=(ΔAspine/Aspine×100)−(ΔAshaft/Ashaft×100)). […] Data are graphed as mean±SEM (n=7-8 coverslips from 3 different cultures). **p<0.01, ***p<0.001 by ANOVA, Tukey's multiple comparisons test.
FIG. 18A: Representative images of dendritic spine motility by standard deviation projection of time stacks. […] To display the spine motility in time-lapse images, the time stack images over 5 min of each conditions were projected to standard deviation using Image J and color coated with thermal color scale. […] FIG. 18B: Quantification of spine motility, expressed as % of changed area of spines with subtraction of dendritic shaft area change (changed area=(ΔAspine/Aspine×100)−(ΔAshaft/Ashaft×100)). Mean±SEM (n=5 coverslips).
Time-lapse images were acquired for 5 minutes with 10 second intervals in Tyrode's solution using 60× objective lens driven Volocity software. Time-lapse images (31 time frames over 5 min) were subjected to standard deviation (STD) projection to visualize spine motility in single image and colorized with thermal scale using ImageJ software (NIH). Quantitative measurements of spine motility by calculating the changed area at individual dendritic spines were conducted by using ImageJ software by an observer unaware of treatment group.

T1 sequence (Q14289 whole entry, species assumed): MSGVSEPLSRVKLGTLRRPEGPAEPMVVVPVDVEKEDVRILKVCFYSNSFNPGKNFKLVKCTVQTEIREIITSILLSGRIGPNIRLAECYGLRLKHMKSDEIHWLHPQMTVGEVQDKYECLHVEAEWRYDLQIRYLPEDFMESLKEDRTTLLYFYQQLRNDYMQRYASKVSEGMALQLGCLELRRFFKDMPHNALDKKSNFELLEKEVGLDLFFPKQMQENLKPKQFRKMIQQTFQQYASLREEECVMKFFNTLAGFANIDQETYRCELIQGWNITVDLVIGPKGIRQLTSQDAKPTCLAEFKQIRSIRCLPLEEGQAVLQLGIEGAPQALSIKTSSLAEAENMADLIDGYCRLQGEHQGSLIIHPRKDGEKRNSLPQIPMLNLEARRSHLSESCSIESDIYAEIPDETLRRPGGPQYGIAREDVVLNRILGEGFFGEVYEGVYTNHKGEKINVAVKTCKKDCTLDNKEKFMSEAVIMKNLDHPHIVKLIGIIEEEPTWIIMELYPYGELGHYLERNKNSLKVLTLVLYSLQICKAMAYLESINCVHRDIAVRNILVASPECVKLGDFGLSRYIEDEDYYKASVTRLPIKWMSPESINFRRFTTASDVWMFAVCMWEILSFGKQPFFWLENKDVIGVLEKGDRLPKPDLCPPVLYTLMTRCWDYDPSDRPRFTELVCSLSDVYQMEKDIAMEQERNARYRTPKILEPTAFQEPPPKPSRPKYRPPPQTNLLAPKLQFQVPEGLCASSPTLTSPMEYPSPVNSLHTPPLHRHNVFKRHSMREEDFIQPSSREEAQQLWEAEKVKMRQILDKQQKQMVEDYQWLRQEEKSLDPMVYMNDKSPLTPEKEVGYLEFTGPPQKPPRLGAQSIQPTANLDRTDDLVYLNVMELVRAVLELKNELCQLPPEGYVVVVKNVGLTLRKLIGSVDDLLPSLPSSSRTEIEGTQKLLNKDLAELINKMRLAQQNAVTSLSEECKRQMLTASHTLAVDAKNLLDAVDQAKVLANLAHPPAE

**Q.** What does the source list for CN1CCN(CCOc2cc(OC3CCOCC3)c3c(Nc4c(Cl)ccc5c4OCO5)ncnc3c2)CC1 [AZD-0530, N-(5-chloro-1,3-benzodioxol-4-yl)-7-[2-(4-methyl-1-piperazinyl)ethoxy]-5-[(tetrahydro-2H-pyran-4-yl)oxy]-4-quinazolinamine]?
**A.** Inhibition Character (Pyk2 [1]): Fyn selective; Ki (Pyk2 [2]): > 1000 nM; memory deficits and synapse loss in APP/PS1 mice (APP/PS1 mice; mouse, in vivo): rescuing memory deficits and synapse loss; activated p-Pyk2 level in transgenic mice (APP/PS1 mice; transgenic mice have a two-fold increase): reduces this level to that of WT mice

**Q.** Which “Inhibition Character” value (Pyk2 [1]) does the source give for Cc1cc(N2CCOCC2)cc2nc(-c3c(NCC(O)c4cccc(Cl)c4)cc[nH]c3=O)[nH]c12 (centres unmarked) [Compound 5, 4-((2-(3-chlorophenyl)-2-hydroxyethyl)amino)-3-(7-methyl-5-morpholino-1H-benzo[d]imidazol-2-yl)pyridin-2(1H)-one] here?
**A.** dual Pyk2-Fyn

**Q.** Which “Inhibition Character” value (Pyk2 [1]) does the source give for Cn1cc(-c2cnc(N)c3c(-c4ccc(NC(=O)Nc5ccc(OC(F)F)cc5)cc4)csc23)cn1 [Compound 6, 1-(4-(4-amino-7-(1-methyl-1H-pyrazol-4-yl)thieno[3,2-c]pyridin-3-yl)phenyl)-3-(4-(difluoromethoxy)phenyl)urea] here?
**A.** dual Pyk2-Fyn

**Q.** For Cc1cnc(Nc2cccc(S(N)(=O)=O)c2)nc1Nc1ccc(OCC(N)=O)cc1 [Compound 8, 2-(4-((5-methyl-2-((3-sulfamoylphenyl)amino)pyrimidin-4-yl)amino)phenoxy)acetamide], which “Inhibition Character” value (Pyk2 [1]) is on record?
**A.** dual Pyk2-Fyn

**Q.** With C[C@@H](N)[C@H]1CC[C@H](C(=O)Nc2ccncc2)CC1 [Compound Y27632] as the compound, how does the Graf1c-knockdown-induced spine loss [3] read?
**A.** rescue Graf1c-knockdown-induced spine loss

**Q.** What about the “Aβo-induced decrease in spine motility” value ([4]; Aβo 24 hours, PF-719 1 μM, Y27632 10 μM) of the same compound?
**A.** rescue fully the Aβo-induced decrease in spine motility

**Q.** Which “Inhibition Character” value (Pyk2 [1]) does the source give for C[C@]12O[C@H](C[C@]1(O)CO)n1c3ccccc3c3c4c(c5c6ccccc6n2c5c31)CNC4=O [Lestaurtinib, (5S,6S,8R)-6-Hydroxy-6-(hydroxymethyl)-5-methyl-7,8,14,15-tetrahydro-5H-16-oxa-4b,8a,14-triaza-5,8-methanodibenzo[b,h]cycloocta[jkl]cyclopenta[e]-as-indacen-13(6H)-one] here?
**A.** dual Pyk2-Fyn

**Q.** For C=C1[C@@H](C)[C@H]2[C@H](Cc3ccccc3)NC(=O)[C@]23[C@H](OC(C)=O)/C=C/[C@@](C)(O)C(=O)[C@@H](C)C/C=C/[C@H]3[C@@H]1O [cytochalasin D], which “spine motility (actin dependence)” value ([4]; 1 μm Cytochalasin D for 20 minutes, no Aβo) is on record?
**A.** near complete cessation of spine motility
